Experimental findings from US6294674A, “Dibenzofuran sulfonamide matrix metalloproteinase inhibitors” (priority 1999, dated 2001) are described below.

Test [1] deals with gelatinase A catalytic domain (MMP02). Description: Thiopeptolide assay, gelatinase A catalytic domain (GCD, MMP02). Type of test: biochemical.
Test [2] deals with MMP13. In words: Thiopeptolide assay, MMP13. Type of test: biochemical, human. The conditions noted are these: Table 1. How it is done: MMP01, MMP07, MMP09, and MMP13 activity was assayed in a method similar to MMP02 and MMP03 (SCD and GCD). MMP01 and MMP09 can be obtained from Washington University School of Medicine, St. Louis, Mo. MMP07 can be obtained in accordance with the known procedure set forth by Ye QZ, Johnson L. L., and Baragi V., "Gene Syntheses and Expression in E. coli for PUMP, a Human Matrix Metalloproteinase" Biochem. and Biophys. […] MMP 13 can be obtained in accordance with the known procedure set forth by Freije J. M. P., et al., "Molecular Cloning and Expression of Collegenase-3, a Novel Human Matrix Metalloproteinase Produced by Breast Carcinomas" J. Bio.
Hydrolysis of the thiopeptolide substrate Ac-Pro-Leu-Gly-thioester-Leu-Leu-Gly-OEt (Bachem) is used as the primary screen to determine IC50 values for MMP inhibitors. A 100 μL reaction contains 1 mM 5,5'-dithiobis(2-nitrobenzoic acid) (DTNB), 100 μM substrate, 0.1% Brij, enzyme, and inhibitor in the appropriate reaction buffer. Activated full-length enzymes are assayed at 5 nM, Stromelysin Catalytic Domain (SCD) at 10 nM, and Gelatinase A Catalytic Domain (GaCD) at 1 nM. Inhibitors are screened from 100 μM to 1 nM. Full-length enzymes are assayed in 50 mM HEPES, 10 mM CaCl2, pH 7.0; SCD in 50 mM MES, 10 mM CaCl2, pH 6.0; and GaCD in 50 mM MOPS, 10 mM CaCl2, 10 μM ZnCl2, pH 7.0.

Test [3] deals with T1, stromelysin-1 catalytic domain (MMP03) (Homo sapiens, UniProt P08254).
T1 construct: SCD (stromelysin-1 catalytic domain); made in house; host or cells: Escherichia coli
In words: Thiopeptolide assay, stromelysin-1 catalytic domain (SCD, MMP03). Type of test: biochemical.

In test [4] the target is T2, MMP07 (Homo sapiens, UniProt P09237).
T2 construct: made in house; host or cells: Escherichia coli
T2 sequence (P09237 95-267): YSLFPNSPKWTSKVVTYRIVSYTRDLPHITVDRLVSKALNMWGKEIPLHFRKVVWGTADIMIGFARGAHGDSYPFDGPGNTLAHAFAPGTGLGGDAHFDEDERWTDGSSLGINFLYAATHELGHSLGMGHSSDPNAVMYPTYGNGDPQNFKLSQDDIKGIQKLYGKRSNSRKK
In words: Thiopeptolide assay, MMP07. The test is classed as biochemical.

The target in test [5] is T3, MMP01 (Homo sapiens, UniProt P03956).
T3 construct: purchased Washington University School of Medicine, St. Louis, Mo
T3 sequence (P03956 100-469): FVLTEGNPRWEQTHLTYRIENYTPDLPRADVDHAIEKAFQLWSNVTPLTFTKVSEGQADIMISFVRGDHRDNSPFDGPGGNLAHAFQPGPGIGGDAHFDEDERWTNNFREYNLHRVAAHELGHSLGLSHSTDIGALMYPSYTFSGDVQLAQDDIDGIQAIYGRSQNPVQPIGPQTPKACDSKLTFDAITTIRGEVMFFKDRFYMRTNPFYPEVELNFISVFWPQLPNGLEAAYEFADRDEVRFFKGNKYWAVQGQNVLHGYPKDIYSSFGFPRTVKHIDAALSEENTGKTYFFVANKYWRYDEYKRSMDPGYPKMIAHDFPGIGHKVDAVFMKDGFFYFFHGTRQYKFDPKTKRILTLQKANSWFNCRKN
Description: Thiopeptolide assay, MMP01. The test is classed as biochemical.

The test system of test [6] is MMP-13CD. Description: Thiopeptolide assay, MMP-13CD. The test is classed as biochemical, human. The conditions noted are these: Tables 2, 3, 5, 7.
[7] abbreviates: Table 1, GCD, read-out: IC50 MMP02.
The mark [8] stands for this setting: Table 1, SCD, read-out: IC50 MMP03.
[9] abbreviates: Tables 2, 3, 5, 7, read-out: IC50 MMP-2CD.
Setting [10] is: Tables 2, 3, 5, 7, read-out: IC50 MMP 3CD.
Where [11] appears, read: Tables 2, 3, 5, 7, read-out: IC50 MMP-7.
The mark [12] stands for this setting: Tables 2, 3, 5, 7, read-out: IC50 MMP1.

pIC50: −log10 of the molar value. Where two headings read alike, the source gives them in different places.

Broadly, the pIC50 is the IC50 on a negative log10 scale, so that one unit is a factor of ten.

T1 sequence (P08254 100-272 limits assumed): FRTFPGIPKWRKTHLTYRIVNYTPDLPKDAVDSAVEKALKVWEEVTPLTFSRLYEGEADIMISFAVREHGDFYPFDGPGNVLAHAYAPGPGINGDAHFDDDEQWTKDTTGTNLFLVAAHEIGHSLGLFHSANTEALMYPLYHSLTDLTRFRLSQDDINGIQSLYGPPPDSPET

Take `O=C(CC[C@H](NS(=O)(=O)c1ccc2oc3ccccc3c2c1)C(=O)O)NCCc1ccccc1` [Example 5, 2-(Dibenzofuran-2-sulfonylamino)-4-phenethylcarbamoyl-butyric acid]: the negative logarithm of the IC50 (pIC50) is 7.12 in test [1] (setting [7]); 6.55 in test [2]; 6.49 in test [3] (setting [8]); 5.18 in test [4] (Table 1, read-out: IC50 MMP07); 4.41 in test [5] (Table 1, read-out: IC50 MMP01).
In the same order, the values of `CCCc1ccc(C(=O)CC(NS(=O)(=O)c2ccc3oc4ccccc4c3c2)C(=O)O)cc1` (centres unmarked) [Example 6] are 5.62, 5.15, 5.43, 4.06 and 4.00.
In the same order, the values of `O=C(O)[C@H](CCc1ccccc1)NS(=O)(=O)c1ccc2c(c1)oc1ccccc12` [Example 8] are 8.42, 7.49, 7.89, 5.92 and 5.46.
On to `O=C(O)C(CCCCNS(=O)(=O)c1cccc2ccccc12)NS(=O)(=O)c1ccc2oc3ccccc3c2c1` (centres unmarked) [Example D9, 2-(Dibenzofuran-2-sulfonylamino)-6-(naphthalene-1-sulfonylamino)-hexanoic acid], for which the pIC50 is 5.37 in test [1] (setting [9]); 4.85 in test [3] (setting [10]); 4.93 in test [6]; below 4.00 in test [4] (setting [11]); below 4.00 in test [5] (setting [12]).
As to `COc1ccccc1CNC(=O)CCC(NS(=O)(=O)c1ccc2oc3ccccc3c2c1)C(=O)O` (centres unmarked) [Example F15, 2-(Dibenzofuran-2-sulfonylamino)-4-(2-methoxy-benzylcarbamoyl)-butyric acid], the negative logarithm of the IC50 (pIC50) in test [1] (setting [9]) is 6.52; in test [3] (setting [10]), 5.74; in test [6] it was 6.22; in test [4] (setting [11]), 4.43; in test [5] (setting [12]) it was below 4.00.
The like results for `COc1ccccc1CCC(=O)NCCCCC(NS(=O)(=O)c1ccc2oc3ccccc3c2c1)C(=O)O` (centres unmarked) [Example A25] were, in that order, 5.74, 5.28, 5.28, below 4.00 and below 4.00.
For `O=C(CCCc1cccs1)NCCCCC(NS(=O)(=O)c1ccc2oc3ccccc3c2c1)C(=O)O` (centres unmarked) [Example A35, 2-(Dibenzofuran-2-sulfonylamino)-6-[4-thiophen-2-yl-butyrylamino)-hexanoic acid], the negative logarithm of the IC50 (pIC50) in test [1] (setting [9]) was 5.96; in test [3] (setting [10]) it was 5.77; in test [6], 5.36; in test [4] (setting [11]), below 4.00; in test [5] (setting [12]) it was below 4.00.
Consider `O=C(CC1=CCCC1)NCCCCC(NS(=O)(=O)c1ccc2oc3ccccc3c2c1)C(=O)O` (centres unmarked) [Example A12], for which the pIC50 in test [1] (setting [9]) is 6.22; in test [3] (setting [10]), 6.00; in test [6], 5.77; in test [4] (setting [11]), 4.19; in test [5] (setting [12]), below 4.00.
In the same order, the values of `O=C(Cc1cccs1)NCCCCC(NS(=O)(=O)c1ccc2oc3ccccc3c2c1)C(=O)O` (centres unmarked) [Example A5, 2-(Dibenzofuran-2-sulfonylamino)-6-(2-thiophen-2-yl-acetylamino)-hexanoic acid] are 6.05, 6.30, 5.96, 4.45 and below 4.00.
In the same order, the values of `COc1ccc(S(=O)(=O)NCCCCC(NS(=O)(=O)c2ccc3oc4ccccc4c3c2)C(=O)O)cc1` (centres unmarked) [Example D2, 2-(Dibenzofuran-2-sulfonylamino)-6-(4-methoxy-benzenesulfonylamino)-hexanoic acid] are 5.74, 5.34, 5.15, below 4.00 and below 4.00.
As for `O=C(O)C(CCCCNS(=O)(=O)C=Cc1ccccc1)NS(=O)(=O)c1ccc2oc3ccccc3c2c1` (centres unmarked) [Example D10, 2-(Dibenzofuran-2-sulfonylamino)-6-(2-phenyl-ethenesulfonylamino)-hexanoic acid], the negative-log IC50 (pIC50) in test [1] (setting [9]) is 5.60; in test [3] (setting [10]) it was 5.38; in test [6] it was 4.95; in test [4] (setting [11]) it was below 4.00; in test [5] (setting [12]), below 4.00.
Consider `O=C(O)[C@H](CCc1ccccc1)NS(=O)(=O)c1ccc2sc3ccccc3c2c1` [Example 7, 2-(Dibenzothiophene-2-sulfonylamino)-4phenyl-butyric acid], for which the pIC50 was 6.11 in test [1] (setting [7]); 5.24 in test [2]; 5.89 in test [3] (setting [8]); 4.09 in test [4] (Table 1, read-out: IC50 MMP07); 4.00 in test [5] (Table 1, read-out: IC50 MMP01).
As for `O=C(O)C(CCCCNS(=O)(=O)c1ccc(F)cc1)NS(=O)(=O)c1ccc2oc3ccccc3c2c1` (centres unmarked) [Example D1, 2-(Dibenzofuran-2-sulfonylamino)-6-(4-fluoro-benzenesulfonylamino)-hexanoicacid], the negative-log IC50 (pIC50) in test [1] (setting [9]) was 5.77; in test [3] (setting [10]) it was 5.54; in test [6], 5.62; in test [4] (setting [11]) it was below 4.00; in test [5] (setting [12]) it was below 4.00.
On to `O=C(O)C(CCCCNS(=O)(=O)c1ccccc1)NS(=O)(=O)c1ccc2oc3ccccc3c2c1` (centres unmarked) [Example D6, 6-Benzenesulfonylamino-2-(dibenzofuran-2-sulfonylamino)-hexanoic acid], for which the pIC50 in test [1] (setting [9]) was 5.85; in test [3] (setting [10]), 5.60; in test [6] it was 5.48; in test [4] (setting [11]) it was 4.04; in test [5] (setting [12]), below 4.00.
Consider `CC(C)(Oc1ccc(Cl)cc1)C(=O)NCCCCC(NS(=O)(=O)c1ccc2oc3ccccc3c2c1)C(=O)O` (centres unmarked) [Example A1, 6-[2-(4-Chloro-phenoxy)-2-methyl-propionylamino]-2-(dibenzofuran-2-sulfonylamino)-hexanoic acid], for which the pIC50 is 5.28 in test [1] (setting [9]); 5.02 in test [3] (setting [10]); 4.96 in test [6]; below 4.00 in test [4] (setting [11]); below 4.00 in test [5] (setting [12]).
For `O=C(O)C(CCCCNC(=S)NCc1ccccc1)NS(=O)(=O)c1ccc2oc3ccccc3c2c1` (centres unmarked) [Example B5, 6-(3-Benzyl-thioureido)-2-(dibenzofuran-2-sulfonylamino)-hexanoic acid], the negative-log IC50 (pIC50) is 5.92 in test [1] (setting [9]); 5.64 in test [3] (setting [10]); 5.48 in test [6]; below 4.00 in test [4] (setting [11]); below 4.00 in test [5] (setting [12]).
For the molecule `O=C(NCCCCC(NS(=O)(=O)c1ccc2oc3ccccc3c2c1)C(=O)O)NCc1ccccc1` (centres unmarked) [Example B9, 6-(3-Benzyl-ureido)-2-(dibenzofuran-2-sulfonylamino)-hexanoic acid], the pIC50 in test [1] (setting [9]) is 6.10; in test [3] (setting [10]) it was 5.85; in test [6] it was 5.40; in test [4] (setting [11]) it was 4.15; in test [5] (setting [12]), below 4.00.
As to “2-(Dibenzofuran-2-sulfonylamino)-pentanedioic acid 1-tert-butyl Ester [Example 4]”, the pIC50 in test [1] (setting [7]) was 6.92; in test [2], 6.46; in test [3] (setting [8]), 6.34; in test [4] (Table 1, read-out: IC50 MMP07), 5.43; in test [5] (Table 1, read-out: IC50 MMP01), 4.04.
On to `O=C(CCC(NS(=O)(=O)c1ccc2oc3ccccc3c2c1)C(=O)O)NCCc1cccs1` (centres unmarked) [Example F11, 2-(Dibenzofuran-2-sulfonylamino)-4-(2-thiophen-2-yl-ethylcarbamoyl)-butyricacid], for which the pIC50 in test [1] (setting [9]) was 5.68; in test [3] (setting [10]), 5.57; in test [6] it was 5.44; in test [4] (setting [11]), below 4.00; in test [5] (setting [12]), below 4.00.
